{"source": "patent US12325676B2", "about": "“Cationic lipid compound and composition for delivery of nucleic acids and use thereof” (Shenzhen Rhegen Biotechnology Co., Ltd., priority 2022, dated 2025)", "assay": "Encapsulation rate of mRNA-loaded lipid nanoparticles (Ribogreen kit)", "assay_type": "physicochemical", "method": "Luciferase mRNA was diluted in 10-100 mM citrate buffer at pH 4.0; the lipid components (cationic lipids shown in the present disclosure: DSPC:cholesterol:PEG lipids (DMG-PEG2000)) were dissolved in ethanol at a molar ratio of 50:10:38.5:1.5.\n3 mL of a mRNA buffer and 1 mL of a lipid solution were loaded into two 5 mL syringes respectively, and the syringes were installed on a microfluidic syringe pump. Chips were connected to the syringes and syringe pump flow rate was set. Clicking the start button of the syringe pump caused injection into the chip at a flow rate ratio of 3:1. Under observation of the color of the product at the exit of the chip, after discarding the first 5 milky white droplets (about 100 μL), the back-end sample was collected into an EP tube. The collected product was placed in a dialysis bag and dialyzed for 6 h (MWCO: 100 KDa) in 10 mM PBS (pH 7.4) intervals. Subsequently, after being concentrated by ultrafiltration to the desired concentration, the lipid nanoparticles were filtered through a 0.22 μm sterile filter and then stored at 4° C.\nTests were performed to calculate the encapsulation rate of the products according to the instructions of Ribogreen kit. Particle size and polydispersity index (PDI) detection as well as zeta potential analysis was performed on a Malvern Zetasizer nano instrument using standard assays.", "data": [{"smiles": "CCCCCCCCSCC(C)C(=O)OCCCCCN(CCO)CCCCCCCC(=O)OC(CCCCCCCC)CCCCCCCC", "note": "(centres unmarked) [Compound 35]", "values": [{"measurement": "Encapsulation rate (%)", "setting": "Table 1, Luciferase mRNA LNP, cationic lipid:DSPC:cholesterol:DMG-PEG2000 50:10:38.5:1.5 molar", "result": 90.4, "unit": "%"}, {"measurement": "Encapsulation rate (%)", "setting": "Table 3 batch, luciferase mRNA LNP prepared as Example 20", "result": 96.2, "unit": "%"}]}]}
